≈ marks a conversion by molar mass, not a printed value. Calls of active or inactive are those of the source. The rule behind the calls is not given here.
Legend:
Staphylococcus aureus [1] = assay: Antibacterial activity against methicillin resistant Staphylococcus aureus; format: functional
Staphylococcus aureus [2] = assay: Antibacterial activity against methicillin resistant Staphylococcus aureus clinical isolates; format: functional
[3] = Cytotoxicity against rat HBZY-1 cells assessed as reduction in cell viability by CCK-8 assay; format: toxicity, cell-based
[4] = Hemolytic activity in sheep RBC; format: toxicity, cell-based, Ovis aries, Erythrocyte; settings: sheep red blood cells (erythrocytes)
[5] = system: Stenotrophomonas maltophilia; assay: Antibacterial activity against Stenotrophomonas maltophilia ATCC 17808 by CLSI protocol based assay; format: functional
Staphylococcus aureus [6] = assay: Resistance development in 20 day passaged Staphylococcus aureus assessed as ciprofloxacin antibacterial activity; format: functional, organism-based
[7] = Cytotoxicity against HUVEC assessed as reduction in cell viability by CCK-8 assay; format: toxicity, cell-based; settings: human, HUVEC cells
Staphylococcus aureus [8] = assay: Resistance development in 20 day passaged Staphylococcus aureus assessed as ampicillin antibacterial activity; format: functional, organism-based
Staphylococcus aureus [9] = assay: Post-antibiotic effect against Staphylococcus aureus at 1 times of MIC incubated for 1 hrs; format: functional
Staphylococcus aureus [10] = assay: Resistance development in 20 day passaged Staphylococcus aureus assessed as cefotaxime antibacterial activity; format: functional, organism-based
Staphylococcus aureus [11] = assay: Antibacterial activity against Staphylococcus aureus ATCC 29213 by CLSI protocol based assay; format: functional
Staphylococcus aureus [12] = assay: Resistance development in 20 day passaged Staphylococcus aureus assessed as levofloxacin antibacterial activity; format: functional, organism-based
Enterococcus faecalis = assay: Antibacterial activity against Enterococcus faecalis ATCC 29212 by CLSI protocol based assay; format: functional
Cell membrane [13] = assay: Induction of inner membrane permeabilization in Staphylococcus aureus assessed as increase in fluorescence intensity at 16 microg/ml by PI staining based analysis; format: cell membranes; settings: dose 16.0 µg/ml
Staphylococcus aureus [14] = assay: Antibacterial activity against Staphylococcus aureus assessed as reduction in metabolic activity at sub-MIC; format: functional, organism-based
Escherichia coli [15] = assay: Antibacterial activity against Escherichia coli ATCC 25922 by CLSI protocol based assay; format: functional
Staphylococcus aureus [16] = assay: Resistance development in 20 day passaged Staphylococcus aureus assessed as beta-lactam antibacterial activity; format: functional, organism-based
Staphylococcus aureus [17] = assay: Drug resistance, ratio of MIC for Staphylococcus aureus measured after 10 days to MIC for Staphylococcus aureus; format: functional
Staphylococcus aureus [18] = assay: Drug resistance, ratio of MIC for Staphylococcus aureus measured after 20 days to MIC for Staphylococcus aureus; format: functional
Staphylococcus aureus [19] = assay: Antibacterial activity against early exponential growth phase Staphylococcus aureus assessed as reduction in bacterial colony at 8 times of MIC measured at 8 to 24 hrs by time-kill kinetics assay; format: functional, organism-based; settings: time 8-24 hrs
Staphylococcus aureus [20] = assay: Antibacterial activity against Staphylococcus aureus measured after 3 to 6 hrs in presence of 50% plasma; format: functional, organism-based; settings: time 3-6 hrs
Staphylococcus aureus [21] = assay: Post-antibiotic effect against Staphylococcus aureus at 4 times of MIC incubated for 1 hrs; format: functional
Cell membrane [22] = assay: Induction of cell membrane depolarization in Staphylococcus aureus assessed as increase in fluorescence intensity at 16 microg/ml by DiSC3(5) dye based assay; format: cell membranes; settings: dose 16.0 µg/ml
Staphylococcus aureus [23] = assay: Antibacterial activity against Staphylococcus aureus assessed as inhibition of metabolic activity at MIC; format: functional
Escherichia coli [24] = assay: Induction of morphological changes in Escherichia coli assessed as cell elongation at 8 times of MIC incubated for 6 hrs by scanning electron microscopic analysis; format: functional, organism-based
Staphylococcus aureus [25] = assay: Antibacterial activity against methicillin resistant Staphylococcus aureus clinical isolates assessed as 50% inhibition of bacterial growth; format: functional
Staphylococcus aureus [26] = assay: Drug resistance, ratio of MIC for Staphylococcus aureus measured within 20 days to MIC for Staphylococcus aureus; format: functional
Staphylococcus aureus [27] = assay: Antibacterial activity against Staphylococcus aureus in presence of 50% serum; format: functional
[28] = Cytotoxicity against rat HBZY-1 cells assessed as viable cells at 128 microg/ml incubated for 48 hrs by CCK-8 assay relative to control; format: toxicity, cell-based; settings: at 128 µg/mL, read-out: Activity
Cell membrane [29] = assay: Induction of cell membrane damage in Staphylococcus aureus assessed as nucleic acid leakage at 8 to 32 microg/ml by absorbance based analysis; format: cell membranes; settings: dose 8-32 µg/ml
[30] = Cytotoxicity against HUVEC assessed as viable cells at 128 microg/ml incubated for 48 hrs by CCK-8 assay relative to control; format: toxicity, cell-based; settings: human, at 128 µg/mL, read-out: Activity
Staphylococcus aureus [31] = assay: Antibacterial activity against Staphylococcus aureus in presence of 50% plasma; format: functional
[32] = Hemolytic activity in sheep RBC assessed as hemolysis rate at 1280 microg/ml relative to control; format: toxicity, cell-based, Ovis aries, Erythrocyte; settings: sheep red blood cells (erythrocytes), dose 1280 µg/ml, read-out: Activity
Cell membrane [33] = assay: Induction of cell membrane damage in Staphylococcus aureus assessed as protein leakage at 8 to 32 microg/ml; format: cell membranes; settings: dose 8-32 µg/ml
Staphylococcus aureus [34] = assay: Antibacterial activity against Staphylococcus aureus measured after 20 days; format: functional; settings: 480 h, time 20 day
Staphylococcus aureus [35] = assay: Drug resistance, ratio of MIC for Staphylococcus aureus measured after 7 days to MIC for Staphylococcus aureus; format: functional

Compound `CCCCCCN(Cc1ccc(-c2ccc(CN(CCCCCC)C(=O)[C@@H](N)CCCCN)cc2)cc1)C(=O)[C@@H](N)CCCCN.O=C(O)C(F)(F)F.O=C(O)C(F)(F)F.O=C(O)C(F)(F)F.O=C(O)C(F)(F)F` has an MIC (Staphylococcus aureus [1]) of 3.1 µg/mL.
In the case of `CO/N=C(\C(=O)N[C@@H]1C(=O)N2C(C(=O)[O-])=C(C[n+]3ccccc3)CS[C@H]12)c1csc(N)n1.O=C(O)C(F)(F)F`, the MIC (Staphylococcus aureus [2]) was 2 µg/mL, the CC50 [3] was over 128 µg/mL and the HC50 [4] was over 1280 µg/mL. For the same compound, the MIC [5] was 0.063 µg/mL, the Activity (Staphylococcus aureus [6]) was “inactive” and the CC50 [7] was over 128 µg/mL. For the same compound, the Activity (Staphylococcus aureus [8]) was “inactive”, the PAE (Staphylococcus aureus [9]) was 1.48 h and the Activity (Staphylococcus aureus [10]) was “inactive”. For the same compound, the MIC (Staphylococcus aureus [11]) was 1 µg/mL, the Activity (Staphylococcus aureus [12]) was “inactive” and the MIC (Enterococcus faecalis) was 4 µg/mL. The Activity (Cell membrane [13]) was “inactive”, the Activity (Staphylococcus aureus [14]) was “Active” and the MIC (Escherichia coli [15]) was 0.063 µg/mL. The Activity (Staphylococcus aureus [16]) was “inactive”, the Ratio (Staphylococcus aureus [17]) was 8 and the Ratio (Staphylococcus aureus [18]) was 32. The Activity (Staphylococcus aureus [19]) was “Active”, the Activity (Staphylococcus aureus [20]) was “Active” and the PAE (Staphylococcus aureus [21]) was 2.1 h. The Activity (Cell membrane [22]) was “inactive”, the “inhibition (INH)” value (Staphylococcus aureus [23]) was about 100% and the Activity (Escherichia coli [24]) was “Active”. It also gave an MIC50 (Staphylococcus aureus [25]) of 2 µg/mL.
For `CCCCCCCCNC(=O)c1ccc[n+](CC2=C(C(=O)[O-])N3C(=O)[C@@H](NC(=O)/C(=N\OC)c4csc(N)n4)[C@H]3SC2)c1.O=C(O)C(F)(F)F`, the MIC (Staphylococcus aureus [2]) was 2 µg/mL, the CC50 [3] was over 128 µg/mL and the HC50 [4] was over 1280 µg/mL. For the same compound, the Ratio (Staphylococcus aureus [26]) was under 4, the MIC (Staphylococcus aureus [27]) was 0.5 µg/mL and the MIC [5] was 8 µg/mL. The Activity (Staphylococcus aureus [6]) was “Active”, the viability at 48 h, 128 microg/ml [28] was 92.6% and the Activity (Cell membrane [29]) was “inactive”. For the same compound, the CC50 [7] was over 128 µg/mL, the Activity (Staphylococcus aureus [8]) was “Active” and the PAE (Staphylococcus aureus [9]) was 1.58 h. For the same compound, the Activity (Staphylococcus aureus [10]) was “Active”, the MIC (Staphylococcus aureus [11]) was 0.5 µg/mL and the viability at 48 h, 128 microg/ml [30] was 100%. The Activity (Staphylococcus aureus [12]) was “Active”, the MIC (Enterococcus faecalis) was 4 µg/mL and the Activity (Cell membrane [13]) was “inactive”. The MIC (Staphylococcus aureus [31]) was 1 µg/mL, the Activity (Staphylococcus aureus [14]) was “Active” and the MIC (Escherichia coli [15]) was 8 µg/mL. The Activity (Staphylococcus aureus [16]) was “Active”, the hemolysis at 1280 microg/ml [32] was 2.85% and the Activity (Staphylococcus aureus [20]) was “Active”. For the same compound, the PAE (Staphylococcus aureus [21]) was 2.08 h, the Activity (Cell membrane [33]) was “inactive” and the Activity (Cell membrane [22]) was “inactive”. For the same compound, the “inhibition (INH)” value (Staphylococcus aureus [23]) was about 100%, the Activity (Escherichia coli [24]) was “Active” and the MIC50 (Staphylococcus aureus [25]) was 2 µg/mL.
For `CCn1cc(C(=O)O)c(=O)c2cc(F)c(N3CCNCC3)cc21` [NORFLOXACIN], the MIC (Staphylococcus aureus [34]) was 64 µg/mL (≈ 200 µM), the Activity (Staphylococcus aureus [6]) was “inactive” and the Activity (Staphylococcus aureus [8]) was “inactive”. For the same compound, the Activity (Staphylococcus aureus [10]) was “inactive”, the Activity (Staphylococcus aureus [12]) was “inactive” and the Activity (Staphylococcus aureus [16]) was “inactive”. It also gave a Ratio (Staphylococcus aureus [35]) of 16 and a Ratio (Staphylococcus aureus [18]) of 64.

Source: ChEMBL document CHEMBL5506000, “Design, synthesis and antibacterial evaluation of low toxicity amphiphilic-cephalosporin derivatives” (Eur J Med Chem, 2024)
